Reference: patent US4021545A, “Complement inhibitors” (priority 1976, dated 1977)
“And” between values parts separate entries of the source, which are not always exact repeats. Equal values may be shown once.

What was measured:
activated human C1 = assay: Test, Code 026 (C1 inhibitor); assay type: biochemical; conditions: serial two-fold dilution assay; higher well number indicates higher activity
Protocol: (§1) This test measures the ability of activated human C1 to destroy fluid phase human C2 in the presence of C4 and appropriate dilutions of the test compound. […] Inhibition of the shunt pathway results in failure of lysis; (iv) Forssman Test -- Here, the well known complement dependent lesion, Forssman vasculitis, is produced in guinea pigs by intradermal injection of rabbit anti-Forssman antiserum. […] The complement level is determined in undiluted serum by the capillary tube method of U.S. Pat. No. 3,876,376 and compared to undosed control guinea pigs; and (vii) Cap 50 Test -- Here, appropriate amounts of the test compound are added to a pool of guinea pig serum in vitro, after which the undiluted serum capillary tube assay referred to above is run.

[1] = test system: complement in pool of guinea pig serum; assay: Cap 50 Test; assay type: biochemical; conditions: in vitro, undiluted guinea pig serum, capillary tube assay
Protocol: as §1

[2] = test system: shunt pathway activated by cobra venom factor; assay type: cell-based; conditions: serial two-fold dilution assay; higher well number indicates higher activity; human erythrocytes in autologous serum
Protocol: as §1

whole complement = conditions: 200 mg/kg, percent inhibition of serum complement vs simultaneous controls
Protocol: With reference to Table I, guinea pigs weighing about 300 g were dosed intravenously (IV) or intraperitoneally (IP) with 200 mg/kg of the test compound dissolved in saline and adjusted to pH 7-8. One hour after dosing, the guinea pigs were decapitated, blood was collected and the serum separated. The serum was tested for whole complement using the capillary tube assay. Percent inhibition was calculated by comparison with simultaneous controls.

[3] = test system: late components of human complement (C3-C9); assay: Test, Code 035 (C3-C9 inhibitor); assay type: biochemical; conditions: serial two-fold dilution assay; higher well number indicates higher activity; lysis of EAC 142
Protocol: as §1

Substance | Cl 026 (activated human C1) | Cap 50 [1] | Shunt Inhibit. 036 [2] | In Vivo Activity Guinea Pig (IV) 2 Hr. (whole complement; 2 Hr.) | In Vivo Activity Guinea Pig (IV) 30 Hr. (whole complement; 30 Hr.) | In Vivo Activity Guinea Pig (IV) 120 Hr. (whole complement; 120 Hr.) | C-Late 035 [3]
Inulin, poly(H-sulfate)salt with triethylamine | 8 wells | 160 | 5 wells | -97 | -95 | -91 | 5 wells
Inulin, poly(H-sulfate)salt with trimethylamine | 8 wells | 131 | 5 wells |  |  |  | 6 wells
Inulin, poly(H-sulfate)sodium salt [INULIN, POLY(H-SULFATE) SODIUM SALT] | 7 wells and 10 wells | 100 and 94 and 92 | 5 wells |  |  |  | 5 wells and 7 wells
